IC50 data for 27 compounds are collected here from patent publication US9598423B2 (BRISTOL-MYERS SQUIBB COMPANY, priority 2013, dated 2017).

For test [1], the target named is CK1δ (Homo sapiens (Human), UniProt P48730). Description: CK1δ kinase assay (Caliper LABCHIP electrophoretic separation of fluoresceinated peptide substrate and product). It counts as biochemical. As to conditions: 200 pM CK1δ, 50 μM ATP, 1.5 μM peptide substrate, 22 hours at room temperature; read-out: CK1δ (IC50). The gist of the method: (§1)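 IC50 values were obtained by non-linear regression from eleven-concentration titrations. The kinase reactions were incubated for 22 hours at room temperature before termination with 35 mM EDTA.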
Chain of CK1δ (P48730 whole entry): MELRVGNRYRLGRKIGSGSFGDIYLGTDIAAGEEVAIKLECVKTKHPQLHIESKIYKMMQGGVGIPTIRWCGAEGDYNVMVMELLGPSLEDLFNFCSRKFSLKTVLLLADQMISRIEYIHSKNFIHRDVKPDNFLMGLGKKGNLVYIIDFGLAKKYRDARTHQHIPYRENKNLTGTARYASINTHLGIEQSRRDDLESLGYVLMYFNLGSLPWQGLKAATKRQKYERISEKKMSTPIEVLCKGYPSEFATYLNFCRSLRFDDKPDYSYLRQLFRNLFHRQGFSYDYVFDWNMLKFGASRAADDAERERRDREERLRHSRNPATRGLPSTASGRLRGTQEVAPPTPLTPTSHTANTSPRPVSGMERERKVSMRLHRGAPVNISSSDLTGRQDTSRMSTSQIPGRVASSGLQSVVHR

The target of test [2] is CK1ε (Homo sapiens (Human), UniProt P49674). The experiment in a line: CK1ε kinase assay (Caliper LABCHIP electrophoretic separation of fluoresceinated peptide substrate and product). The format is biochemical. As to conditions: 200 pM CK1ε, 50 μM ATP, 1.5 μM peptide substrate, 22 hours at room temperature; read-out: CK1ε (IC50). The gist of the method: as §1
Chain of CK1ε (P49674 whole entry): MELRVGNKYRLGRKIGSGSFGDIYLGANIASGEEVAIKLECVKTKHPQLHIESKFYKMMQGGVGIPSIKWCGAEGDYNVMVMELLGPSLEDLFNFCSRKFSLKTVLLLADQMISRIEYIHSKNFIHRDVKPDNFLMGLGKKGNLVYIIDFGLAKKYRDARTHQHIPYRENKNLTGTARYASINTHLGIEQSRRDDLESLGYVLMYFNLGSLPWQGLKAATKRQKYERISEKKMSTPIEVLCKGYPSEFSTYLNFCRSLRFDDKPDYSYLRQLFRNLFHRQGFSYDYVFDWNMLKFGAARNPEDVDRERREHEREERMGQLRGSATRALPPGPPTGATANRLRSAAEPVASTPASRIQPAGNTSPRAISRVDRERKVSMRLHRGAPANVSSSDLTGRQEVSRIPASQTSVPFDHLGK

Consider `NC(=O)c1c(-c2cccc(F)c2)nn2c1CN(C(=O)NC1C[C@H]1c1ccccc1)CC2` (stereo in doubt) [Compound 44, 2-(3-Fluorophenyl)-N^5-((1R,2S)-2-phenylcyclopropyl)-6,7-dihydropyrazolo[1,5-a]pyrazine-3,5(4H)-dicarboxamide], for which the IC50 in test [1] was 0.01 to 10 nM; in test [2], 10 to 100 nM.

`Cc1nc2cc(-c3nn4c(c3C(N)=O)CN(C(=O)Nc3ccc(C#N)c(F)c3)CC4)cc(Cl)c2o1` [Compound 314, 2-(7-Chloro-2-methylbenzo[d]oxazol-5-yl)-N^5-(4-cyano-3-fluorophenyl)-6,7-dihydropyrazolo[1,5-a]pyrazine-3,5(4H)-dicarboxamide]: the concentration for half-maximal inhibition (IC50) in test [1] and in test [2] was 0.01 to 10 nM throughout.

On to `N#Cc1ccc(NC(=O)N2CCn3nc(-c4cc(Cl)cc(Cl)c4)c(C(N)=O)c3C2)cc1` [Compound 273, N^5-(4-Cyanophenyl)-2-(3,5-dichlorophenyl)-6,7-dihydropyrazolo[1,5-a] pyrazine-3,5(4H)-dicarboxamide], for which the IC50 in test [1] and in test [2] was 0.01 to 10 nM throughout.

For `Cc1cc(-c2nn3c(c2C(N)=O)CN(C(=O)Nc2ccc(C#N)c(F)c2)CC3)ccc1F` [Compound 243, N^5-(4-Cyano-3-fluorophenyl)-2-(4-fluoro-3-methylphenyl)-6,7-dihydropyrazolo[1,5-a] pyrazine-3,5(4H)-dicarboxamide], the IC50 in test [1] and in test [2] was 0.01 to 10 nM in each case.

Regarding `NC(=O)c1c(-c2cc(F)cc(Cl)c2)nn2c1CN(C(=O)Nc1cc(Cl)cc(Cl)c1)CC2` [Compound 216, 2-(3-Chloro-5-fluorophenyl)-N^5-(3,5-dichlorophenyl)-6,7-dihydropyrazolo[1,5-a] pyrazine-3,5(4H)-dicarboxamide], the IC50 in test [1] and in test [2] was 0.01 to 10 nM each time.

Take `CC1Cn2nc(-c3ccc(Cl)c(Cl)c3)c(C(N)=O)c2CN1C(=O)Nc1ccc(C#N)cc1` (single isomer, unassigned) [Compound 334, N^5-(4-Cyanophenyl)-2-(3,4-dichlorophenyl)-6-methyl-6,7-dihydropyrazolo[1,5-a]pyrazine-3,5(4H)-dicarboxamide]: the IC50 in test [1] and in test [2] was 0.01 to 10 nM in each case.

Consider `N#Cc1ccc(NC(=O)N2CCn3nc(-c4cccc(OC(F)(F)F)c4)c(C(N)=O)c3C2)cc1` [Compound 284, N^5-(4-Cyanophenyl)-2-(3-(trifluoromethoxy)phenyl)-6,7-dihydropyrazolo[1,5-a] pyrazine-3,5(4H)-dicarboxamide], for which the IC50 in test [1] and in test [2] was 10 to 100 nM throughout.

In the case of `NC(=O)c1c(-c2cccc(F)c2)nn2c1CN(C(=O)Nc1ccc(F)c(Cl)c1)CC2` [Compound 60, N^5-(3-Chloro-4-fluorophenyl)-2-(3-fluorophenyl)-6,7-dihydropyrazolo[1,5-a]pyrazine-3,5(4H)-dicarboxamide], the IC50 in test [1] and in test [2] was 0.01 to 10 nM in each case.

In the case of `NC(=O)c1c(-c2ccc(F)c(Cl)c2)nn2c1CN(C(=O)Nc1ccc(F)c(C(F)(F)F)c1)CC2` [Compound 190, 2-(3-Chloro-4-fluorophenyl)-N^5-(4-fluoro-3-(trifluoromethyl)phenyl)-6,7-dihydropyrazolo[1,5-a] pyrazine-3,5(4H)-dicarboxamide], the 50% inhibitory concentration (IC50) in test [1] and in test [2] was 0.01 to 10 nM in each case.

Take `NC(=O)c1c(-c2cncc(Cl)c2)nn2c1CN(C(=O)Nc1ccc(Cl)c(Cl)c1)CC2` [Compound 299, 2-(5-Chloropyridin-3-yl)-N^5-(3,4-dichlorophenyl)-6,7-dihydropyrazolo[1,5-a]pyrazine-3,5(4H)-dicarboxamide]: the IC50 in test [1] and in test [2] was 0.01 to 10 nM in each case.

Consider `Cc1cc(Cl)cc(-c2nn3c(c2C(N)=O)CN(C(=O)Nc2ccc(C#N)cc2)CC3)c1` [Compound A62, 2-(3-Chloro-5-methylphenyl)-N^5-(4-cyanophenyl)-6,7-dihydropyrazolo[1,5-a]pyrazine-3,5(4H)-dicarboxamide], for which the half-maximal inhibitory concentration (IC50) in test [1] and in test [2] was 0.01 to 10 nM each time.

Regarding `N#Cc1ccc(NC(=O)N2CCn3nc(-c4ccc(F)c(Cl)c4)c(C(N)=O)c3C2)nc1` [Compound 193, 2-(3-Chloro-4-fluorophenyl)-N^5-(5-cyanopyridin-2-yl)-6,7-dihydropyrazolo[1,5-a] pyrazine-3,5(4H)-dicarboxamide], the IC50 in test [1] and in test [2] was 0.01 to 10 nM throughout.

In the case of `N#Cc1ccc(NC(=O)N2Cc3c(C(N)=O)c(-c4ccc(F)c(Cl)c4)nn3CC2C2CC2)cc1` (stereo not drawn) [Compound 341], the IC50 in test [1] and in test [2] was 100 to 2000 nM throughout.

Regarding `Cc1cc(NC(=O)N2CCn3nc(-c4cnc(F)c(Cl)c4)c(C(N)=O)c3C2)ccc1C#N` [Compound 294, 2-(5-Chloro-6-fluoropyridin-3-yl)-N^5-(4-cyano-3-methylphenyl)-6,7-dihydropyrazolo[1,5-a] pyrazine-3,5(4H)-dicarboxamide], the IC50 in test [1] and in test [2] was 0.01 to 10 nM each time.

For `COc1cccc(-c2nn3c(c2C(N)=O)CN(C(=O)Nc2ccc(Cl)c(Cl)c2)CC3)c1` [Compound 303, N^5-(3,4-Dichlorophenyl)-2-(3-methoxyphenyl)-6,7-dihydropyrazolo[1,5-a] pyrazine-3,5(4H)-dicarboxamide], the IC50 in test [1] and in test [2] was 0.01 to 10 nM throughout.

In the case of `NC(=O)c1c(-c2ccc(F)c(Cl)c2)nn2c1CN(C(=O)Nc1cccc(OC(F)(F)F)c1)CC2` [Compound 184, 2-(3-Chloro-4-fluorophenyl)-N^5-(3-(trifluoromethoxy)phenyl)-6,7-dihydropyrazolo[1,5-a] pyrazine-3,5(4H)-dicarboxamide], the IC50 in test [1] and in test [2] was 0.01 to 10 nM each time.

With `NC(=O)c1c(-c2cccc(F)c2)nn2c1CN(C(=O)NC1CCCC1)CC2` [Compound 9, N^5-Cyclopentyl-2-(3-fluorophenyl)-6,7-dihydropyrazolo[1,5-a]pyrazine-3,5(4H)-dicarboxamide], the concentration for half-maximal inhibition (IC50) in test [1] and in test [2] was 0.01 to 10 nM each time.

For `Cc1cc(-c2nn3c(c2C(N)=O)CN(C(=O)Nc2ccc4c(c2)OC(F)(F)O4)CC3)ccc1F` [Compound 247, N^5-(2,2-Difluorobenzo [d][1,3]dioxol-5-yl)-2-(4-fluoro-3-methylphenyl)-6,7-dihydropyrazolo[1,5-a]pyrazine-3,5(4H)-dicarboxamide], the 50% inhibitory concentration (IC50) in test [1] and in test [2] was 0.01 to 10 nM in each case.

Consider `COc1cc(NC(=O)N2CCn3nc(-c4cccc(Cl)c4)c(C(N)=O)c3C2)ccc1C#N` [Compound A40, 2-(3-Chlorophenyl)-N^5-(4-cyano-3-methoxyphenyl)-6,7-dihydropyrazolo[1,5-a]pyrazine-3,5(4H)-dicarboxamide], for which the half-inhibitory concentration (IC50) in test [1] and in test [2] was 0.01 to 10 nM in each case.

Turning to `Cc1cc(Cl)cc(-c2nn3c(c2C(N)=O)CN(C(=O)Nc2ccc(C#N)c(Cl)c2)CC3)c1` [Compound A63, N^5-(3-Chloro-4-cyanophenyl)-2-(3-chloro-5-methylphenyl)-6,7-dihydropyrazolo[1,5-a]pyrazine-3,5(4H)-dicarboxamide], the IC50 in test [1] and in test [2] was 0.01 to 10 nM throughout.

Regarding `CC(C)(C)NC(=O)N1CCn2nc(-c3cc(Cl)cc(Cl)c3)c(C(N)=O)c2C1` [Compound 117, N^5-(tert-Butyl)-2-(3,5-dichlorophenyl)-6,7-dihydropyrazolo[1,5-a]pyrazine-3,5(4H)-dicarboxamide], the IC50 in test [1] and in test [2] was 0.01 to 10 nM each time.

As for `CC1Cn2nc(-c3ccc(Cl)c(Cl)c3)c(C(N)=O)c2CN1C(=O)Nc1ccc(C#N)cc1` (single isomer, unassigned) [Compound 333, N^5-(4-Cyanophenyl)-2-(3,4-dichlorophenyl)-6-methyl-6,7-dihydropyrazolo[1,5-a]pyrazine-3,5(4H)-dicarboxamide], the half-inhibitory concentration (IC50) in test [1] and in test [2] was 0.01 to 10 nM each time.

For the compound `NC(=O)c1c(-c2ccc(F)c(Cl)c2)nn2c1CN(C(=O)Nc1ccc(F)c(Cl)c1)CC2` [Compound 185, N^5,2-Bis(3-chloro-4-fluorophenyl)-6,7-dihydropyrazolo[1,5-a] pyrazine-3,5(4H)-dicarboxamide], the IC50 in test [1] and in test [2] was 0.01 to 10 nM in each case.

For the compound `N#Cc1ccc(NC(=O)N2CCn3nc(-c4cc(F)cc(Cl)c4)c(C(N)=O)c3C2)cc1C(F)(F)F` [Compound 218, 2-(3-Chloro-5-fluorophenyl)-N^5-(4-cyano-3-(trifluoromethyl)phenyl)-6,7-dihydropyrazolo[1,5-a] pyrazine-3,5(4H)-dicarboxamide], the concentration for half-maximal inhibition (IC50) in test [1] lay in the range of 10 to 100 nM; in test [2] it was 0.01 to 10 nM.

Take `NC(=O)c1c(-c2cccc(F)c2)nn2c1CN(C(=O)Nc1ccc(C(F)(F)F)cc1)CC2` [Compound 21, 2-(3-Fluorophenyl)-N^5-(4-(trifluoromethyl)phenyl)-6,7-dihydropyrazolo[1,5-a]pyrazine-3,5(4H)-dicarboxamide]: the IC50 in test [1] and in test [2] was 0.01 to 10 nM throughout.

Regarding `NC(=O)c1c(-c2cccc(Cl)c2)nn2c1CN(C(=O)Nc1ccc(N3CCCCC3)cc1)C[C@H]2CF` [Compound A10, (S)-2-(3-Chlorophenyl)-7-(fluoromethyl)-N^5-(4-(piperidin-1-yl)phenyl)-6,7-dihydropyrazolo[1,5-a]pyrazine-3,5(4H)-dicarboxamide], the IC50 in test [1] and in test [2] was 0.01 to 10 nM throughout.

On to `CN(C)c1cccc(-c2nn3c(c2C(N)=O)CN(C(=O)Nc2ccc(C#N)cc2)CC3)c1` [Compound 279, N^5-(4-Cyanophenyl)-2-(3-(dimethylamino)phenyl)-6,7-dihydropyrazolo[1,5-a] pyrazine-3,5(4H)-dicarboxamide], for which the IC50 in test [1] and in test [2] was 0.01 to 10 nM in each case.
